# Source: patent US8940310B2, “Methods of treatment using TLR7 and/or TLR9 inhibitors” (Dynavax Technologies Corporation, priority 2010, dated 2015)
# Marks after values point to notes of the source that are not given here.
# Columns and labels:
# [1] = test system: human B-cells; test: Human B-cells cultured in the presence of IRPs, IL-6
# Method: For the human B-cell assay, B-cells were purified from total blood cells obtained from healthy donors using magnetic beads (CD19 positive). Cells were resuspended in fresh medium (RPMI 1640 with 10% fetal calf serum, 50 units/mL penicillin, 50 μg/mL streptomycin, and 2 mM glutamine). At 48 hours, supernatants were collected and cytokine levels, IL-6, were measured using immunoassay.
# To further investigate the effect of IRPs on B-cell stimulatory activity, a wide variety of IRP sequences were assayed for IL-6, along with positive and negative controls. The experiment was performed as described in Example 1 using doses of IRP of either 4.0 μM or 2.0 μM. The positive control was an immunostimulatory sequence (ISS) with SEQ ID NO:157. […] The results are presented as the average normalized IL-6 response over several experiments.
# [2] = Monomer and tetramer formation of IRPs, size-exclusion HPLC; type: physicochemical; settings: 100 mg/mL in PBS and 0.5M KCl, room temperature, five weeks
# Method: Solutions were prepared of the by mixing 100 mg/mL of the IRP sequences in PBS and 0.5M KCl and storing at room temperature for three to five weeks. The solutions were subsequently analyzed by size-exclusion HPLC.
# [3] = High dosages of IRPs in rats (weight, deaths, histology); type: in vivo, Sprague Dawley rats; settings: for Heart: Cell Vacuolation, number of animals / Heart: Hemorrhage, number of animals / Heart: Mononuclear Cell Infiltration, number of animals / Heart: Necrosis, number of animals / Heart: No significant changes, number of animals / Liver: Liver changes, number of animals / Liver: Mixed cell infiltration, number of animals / Liver: Necrosis, number of animals / Liver: No significant changes, number of animals / Liver: Vacuolation, number of animals / Right Kidney: Hydronephrosis, number of animals / Right Kidney: Mineralization, number of animals / Right Kidney: Necrosis, number of animals / Right Kidney: No significant changes, number of animals / Right Kidney: Tubular basophilia, number of animals / Right Kidney: Tubular changes, number of animals: 6 animals
# Method: To test the activity of IRPs at high dosages in rats, IRPs (SEQ ID NO:42 and SEQ ID NO:109) or a control (PBS) were subcutaneously administered to 8-9 weeks old, […], 3, 6, and 9 (n=6 per group). Rats were weighed prior to administration and on days 1, 3, 4, 6, 7, and 9. Organs were harvested at the end of the study, and organ weights and tissues levels of the oligonucleotides were determined. In addition, histolocial evaluation of the liver, kidney, and heart was performed.
# Rats were weighed prior to administration and on days 1, 3, 6, 7, and 9. Organs were harvested at the end of the study, and organ weights and tissues levels of the oligonucleotides were determined. In addition, histological evaluation of the liver, kidney, and heart was performed.
# [4] = High dosages of IRPs in mice (weight, histology); type: in vivo, BALB/c mice; settings: for Liver: Liver changes, number of animals / Liver: Mixed cell infiltration, number of animals / Liver: No significan changes, number of animals / Right Kidney: No significant changes, number of animals / Right Kidney: Tubular basophilia, number of animals / Right Kidney: Tubular changes, number of animals: 6 animals; for Heart: No significant changes, number of animals: tissue missing in two animals
# Method: To test the activity of IRPs at high dosages in mice, IRPs or a control (saline) were subcutaneously administered to BALB/c mice at a dosage of 4 mg/kg, 20 mg/kg, 50 mg/kg, or 100 mg/kg on days 1, 4, 7, and 10 (n=5 per group). Mice were weighed prior to administration and on days 2, 4, 7, 9, and 11. Serum cytokines were assayed at two hours post the first and third injections and 24 hours post the fourth injection. Organs were harvested at the end of the study, and organ weights and tissues levels of the oligonucleotides were determined. In addition, histological evaluation of the liver, kidney, and heart was performed.
# Mice were weighed prior to administration and on days 1, 3, 4, 6, 7, and 9. Organs were harvested at the end of the study, and organ weights and tissues levels of the oligonucleotides were determined. In addition, histological evaluation of the liver, kidney, and heart was performed.
# [5] = rat, 10 mg/kg, 0 = no change to 4 = severe
# [6] = rat, 90 mg/kg, 0 = no change to 4 = severe
# [7] = 50 mg/kg, 0 = no change to 4 = severe
# [8] = 100 mg/kg, 0 = no change to 4 = severe
substance,measurement,setting,value
"5′-TGC TCC TGG AGI GGT TG-HEG-T-3′ (DNA TGCTCCTGGAGNGGTTGNT; inosine, internal HEG spacer, chemistry not fully specified) [SEQ ID NO:143]",Normalized IL-6 Response (Percentage of Positive Control),"[1]; Experiment # 3, Max Conc 4.0 uM",5%
same,B-cell stimulatory activity,"[1]; FIG. 1C, percent IL-6 from CpG-ISS",low B-cell stimulatory activity
same,fraction in monomer form,[2],100%
same,toxicity profile,[3]; rat histology,favorable toxicity profiles
same,"Heart: Cell Vacuolation, number of animals","[3]; rat, 10 mg/kg",0
same,"Heart: Hemorrhage, number of animals","[3]; rat, 10 mg/kg",0
same,"Heart: Mononuclear Cell Infiltration, number of animals","[3]; rat, 10 mg/kg",0
same,"Heart: Necrosis, number of animals","[3]; rat, 10 mg/kg",0
same,"Heart: No significant changes, number of animals","[3]; rat, 10 mg/kg",6
same,"Liver: Liver changes, number of animals","[3]; rat, 10 mg/kg",0
same,"Liver: Mixed cell infiltration, number of animals","[3]; rat, 10 mg/kg",5
same,"Liver: Necrosis, number of animals","[3]; rat, 10 mg/kg",0
same,"Liver: No significant changes, number of animals","[3]; rat, 10 mg/kg",1
same,"Liver: Vacuolation, number of animals","[3]; rat, 10 mg/kg",2
same,"Right Kidney: Hydronephrosis, number of animals","[3]; rat, 10 mg/kg",0
same,"Right Kidney: Mineralization, number of animals","[3]; rat, 10 mg/kg",1
same,"Right Kidney: Necrosis, number of animals","[3]; rat, 10 mg/kg",0
same,"Right Kidney: No significant changes, number of animals","[3]; rat, 10 mg/kg",0
same,"Right Kidney: Tubular basophilia, number of animals","[3]; rat, 10 mg/kg",0
same,"Right Kidney: Tubular changes, number of animals","[3]; rat, 10 mg/kg",6
same,"Liver: Mixed cell infiltration, mean severity score",[3]; [5],1.4
same,"Liver: Vacuolation, mean severity score",[3]; [5],1.5
same,"Right Kidney: Mineralization, mean severity score",[3]; [5],2.0
same,"Right Kidney: Tubular changes, mean severity score",[3]; [5],1.1
same,Heart: cellular vacuolation,"[3]; rat, 90 mg/kg",present in some animals
same,Kidney: tubular basophilia,"[3]; rat, 90 mg/kg",occurred
same,Liver: hepatocellular cytoplasmic vacuolation,"[3]; rat, 90 mg/kg",hepatocellular cytoplasmic vacuolation
same,"Heart: Cell Vacuolation, number of animals","[3]; rat, 90 mg/kg",5
same,"Heart: Hemorrhage, number of animals","[3]; rat, 90 mg/kg",0
same,"Heart: Mononuclear Cell Infiltration, number of animals","[3]; rat, 90 mg/kg",0
same,"Heart: Necrosis, number of animals","[3]; rat, 90 mg/kg",0
same,"Heart: No significant changes, number of animals","[3]; rat, 90 mg/kg",1
same,"Liver: Liver changes, number of animals","[3]; rat, 90 mg/kg",6
same,"Liver: Mixed cell infiltration, number of animals","[3]; rat, 90 mg/kg",1
same,"Liver: Necrosis, number of animals","[3]; rat, 90 mg/kg",0
same,"Liver: No significant changes, number of animals","[3]; rat, 90 mg/kg",0
same,"Liver: Vacuolation, number of animals","[3]; rat, 90 mg/kg",5
same,"Right Kidney: Hydronephrosis, number of animals","[3]; rat, 90 mg/kg",0
same,"Right Kidney: Mineralization, number of animals","[3]; rat, 90 mg/kg",2
same,"Right Kidney: Necrosis, number of animals","[3]; rat, 90 mg/kg",0
same,"Right Kidney: No significant changes, number of animals","[3]; rat, 90 mg/kg",0
same,"Right Kidney: Tubular basophilia, number of animals","[3]; rat, 90 mg/kg",3
same,"Right Kidney: Tubular changes, number of animals","[3]; rat, 90 mg/kg",6
same,"Heart: Cell Vacuolation, mean severity score",[3]; [6],1.0
same,"Liver: Liver changes, mean severity score",[3]; [6],2.1
same,"Liver: Mixed cell infiltration, mean severity score",[3]; [6],1.0
same,"Liver: Vacuolation, mean severity score",[3]; [6],2.7
same,"Right Kidney: Mineralization, mean severity score",[3]; [6],2.0
same,"Right Kidney: Tubular basophilia, mean severity score",[3]; [6],1.0
same,"Right Kidney: Tubular changes, mean severity score",[3]; [6],1.8
same,"Heart: Chronic inflammation, number of animals",[4]; 50 mg/kg,2
same,"Heart: Mineralization, number of animals",[4]; 50 mg/kg,1
same,"Heart: Chronic inflammation, mean severity score",[4]; [7],2.0
same,"Heart: Mineralization, mean severity score",[4]; [7],4.0
same,"Liver: Liver changes, mean severity score",[4]; [7],2.0
same,"Liver: Mixed cell infiltration, mean severity score",[4]; [7],3.0
same,"Right Kidney: Tubular basophilia, mean severity score",[4]; [7],2.0
same,"Liver: Liver changes, number of animals",[4]; 50 mg/kg,6
same,"Liver: Mixed cell infiltration, number of animals",[4]; 50 mg/kg,6
same,"Liver: No significan changes, number of animals",[4]; 50 mg/kg,0
same,"Right Kidney: No significant changes, number of animals",[4]; 50 mg/kg,5
same,"Right Kidney: Tubular basophilia, number of animals",[4]; 50 mg/kg,1
same,"Right Kidney: Tubular changes, number of animals",[4]; 50 mg/kg,0
same,"Heart: No significant changes, number of animals",[4]; 50 mg/kg,1**
same,"Heart: Chronic inflammation, number of animals",[4]; 100 mg/kg,0
same,"Heart: Mineralization, number of animals",[4]; 100 mg/kg,1
same,"Heart: Mineralization, mean severity score",[4]; [8],3.0
same,"Liver: Mixed cell infiltration, mean severity score",[4]; [8],1.0
same,"Liver: Liver changes, number of animals",[4]; 100 mg/kg,0
same,"Liver: Mixed cell infiltration, number of animals",[4]; 100 mg/kg,1
same,"Liver: No significan changes, number of animals",[4]; 100 mg/kg,5
same,"Right Kidney: No significant changes, number of animals",[4]; 100 mg/kg,6
same,"Right Kidney: Tubular basophilia, number of animals",[4]; 100 mg/kg,0
same,"Right Kidney: Tubular changes, number of animals",[4]; 100 mg/kg,0
same,"Heart: No significant changes, number of animals",[4]; 100 mg/kg,3**
